Test results from US20180362543A1, “HIV REPLICATION INHIBITOR” (Shionogi & Co., Ltd., priority 2013, published 2018).
Values belong to the molecule of their own block, whether it stands above or below them.

Test system: HIV (HTLV-III B strain)
Test: HIV replication inhibition assay (MTT, MT-4 cells)
Assay type: cell-based
Procedure: HIV (HTLV-III B strain) persistent infected human T cell strain Molt-4 clone 8 was cultured in 10% Fetal Bovine Serum-containing RPMI-1640 medium and the supernatant was filtrated, then the virus titer was measured and the solution was stored at −80° C. Each anti-human immunodeficiency virus active substance was diluted with the above cultured medium to the designated concentration, which was dispensed into 96 well micro plate by 50 μL. Next, a MT-4 cell suspended liquid was dispensed by 100 μL (2.5×10^4 cells), then the above HIV-containing supernatant diluted with the above cultured medium was added thereto by 50 μL (60 pfu (plaque forming unit)).
The obtained mixture was cultured at 37° C. in CO2 incubator for four days, then 3-(4,5-dimehylthiazole-2-yl)-2,5-diphenyltetrazolynium bromide (MTT) 5 mg/mL in PBS was added to each well by 30 μL, followed by 1 hr-cultivation. In this step, as formazan was precipitated by reduction of MTT in living cells, the cell supernatant was removed from all well by 150 μL, then a 150 μL of solution (10% Triton X-100 and […]) was added thereto, followed by shaking with a plate mixer, to elute formazan. The formazan was measured with a microreader at OD: 560 nm and 690 nm (wavelength) and the result was compared with the reference. EC50 means the compound concentration at which cell cytotoxicity by virus is inhibited 50%.

[1] = Human immunodeficiency virus 1, MT4, 96 h, Table A-5, four days
[2] = Human immunodeficiency virus 1, MT4, 96 h, Table A-2, four days
[3] = Human immunodeficiency virus 1, MT4, 96 h, Table A-3, four days
[4] = Human immunodeficiency virus 1, MT4, 96 h, Table A-4, four days
[5] = Human immunodeficiency virus 1, MT4, 96 h, 4 days culture, concentration at which cell cytotoxicity by virus is inhibited 50%
[6] = Human immunodeficiency virus 1, MT4, 96 h, Table A-7, four days

SMILES: Cc1c(-c2c([C@H](OC(C)(C)C)C(=O)O)c(C)c3nc(O)c4ccccc4c3c2C)ccc2c1CCCO2 [Compound 8]
EC50 (4 days culture, concentration at which cell cytotoxicity by virus is inhibited 50%): 62 nM

SMILES: Cc1ccc2c(c1F)CN(S(C)(=O)=O)c1c(C)c([C@H](OC(C)(C)C)C(=O)O)c(-c3ccc4c(c3C)CCCO4)c(C)c1-2 [Compound 251]
EC50 [1]: 2.1 nM

SMILES: Cc1c(-c2c(C)c3c(c(C)c2[C@H](OC(C)(C)C)C(=O)O)N(S(C)(=O)=O)Cc2cc(F)cc(F)c2-3)ccc2c1NCCO2 [Compound 286]
EC50 [1]: 3.2 nM

SMILES: Cc1ccc(-c2c(C)c3c4c(c2C(OC(C)(C)C)C(=O)O)CCCN4S(=O)(=O)N(Cc2ccc(F)cc2)C3)cc1 (stereo not drawn) [Compound 184]
EC50 [3]: 53 nM

SMILES: Cc1ccc(-c2c(C)c3c(c(C)c2[C@H](OC(C)(C)C)C(=O)O)NC(=O)N(C2CCCC2)CC3)cc1 [Compound 149]
EC50 [3]: 23 nM

SMILES: Cc1ccc(-c2c(C)c3c(c(C)c2[C@H](OC(C)(C)C)C(=O)O)NS(=O)(=O)/C=C/CCCCO3)cc1 [Compound 88]
EC50 [2]: 21 nM

SMILES: Cc1ccc(-c2c(C)c3c(c(C)c2[C@H](OC(C)(C)C)C(=O)O)NS(=O)(=O)N(Cc2ccc(F)cc2)CC3)cc1 [Compound 133]
EC50 [2]: 4.8 nM

SMILES: Cc1c(-c2c(C)c3c(c(C)c2[C@H](OC(C)(C)C)C(=O)O)N(S(C)(=O)=O)Cc2ccc(F)c(F)c2-3)ccc2c1NCCO2 [Compound 314]
EC50 [5]: 5.3 nM

SMILES: Cc1ccc(-c2c(C)c3c(c(C)c2[C@H](OC(C)(C)C)C(=O)O)NC(=O)C2(C[C@@H]4CC[C@H]2C4)N3)cc1 (stereo partly drawn) [Compound 113]
EC50 [2]: 8.6 nM

SMILES: COc1cc2c(cn1)-c1c(C)c(-c3ccc(C)cc3C)c([C@H](OC(C)(C)C)C(=O)O)c(C)c1N(S(C)(=O)=O)C2 [Compound 393]
EC50 (Human immunodeficiency virus 1, MT4, 96 h, Table A-8 (continuation of Tables A-1 to A-9), four days): 4.7 nM

SMILES: Cc1c2c3c(c(C(OC(C)(C)C)C(=O)O)c1-c1ccc4c(c1)CCCO4)CCCN3S(=O)(=O)N(Cc1ccccc1)C2 (stereo not drawn) [Compound 79]
EC50 [5]: 15 nM

SMILES: Cc1ccc(-c2c(C)c3c(c(C)c2[C@H](OC(C)(C)C)C(=O)O)N(S(C)(=O)=O)Cc2cccc(F)c2-3)c(C)c1 [Compound 278]
EC50 [1]: 3.7 nM

SMILES: Cc1ccc(-c2c(C)c3c(c(C)c2[C@H](OC(C)(C)C)C(=O)O)N(S(C)(=O)=O)Cc2oc(C)nc2-3)cc1 [Compound 305]
EC50 [5]: 28 nM

SMILES: Cc1ccc(-c2c(C)c3c(c(C)c2[C@H](OC(C)(C)C)C(=O)O)NS(=O)(=O)N(C2CCOCC2)CC3)cc1 [Compound 131]
EC50 [2]: 87 nM

SMILES: Cc1ccc(-c2c(C)c3c(c(C)c2[C@H](OC(C)(C)C)C(=O)O)N(S(C)(=O)=O)Cc2cccc(F)c2-3)cc1N [Compound 352]
EC50 [6]: 10 nM

SMILES: Cc1ccc(-c2c(C)c3c(c(C)c2[C@H](OC(C)(C)C)C(=O)O)NC(=O)C2(CCC(F)(F)CC2)N3)cc1 [Compound 157]
EC50 [3]: 4.3 nM

SMILES: Cc1c(-c2c(C)c3c(c(C)c2[C@H](OC(C)(C)C)C(=O)O)N(S(C)(=O)=O)Cc2cccc(F)c2-3)ccc2c1NCCO2 [Compound 235]
EC50 [4]: 5.4 nM

SMILES: Cc1c(-c2c(C)c3c(c(C)c2[C@H](OC(C)(C)C)C(=O)O)N(C)Cc2cc(F)cc(F)c2-3)ccc2c1NCCO2 [Compound 344]
EC50 [6]: 47 nM

SMILES: Cc1ccc(-c2c(C)c3c(c(C)c2[C@H](OC(C)(C)C)C(=O)O)N(S(C)(=O)=O)Cc2cc(Cl)ccc2-3)cc1 [Compound 301]
EC50 [5]: 4.9 nM

SMILES: COc1nc2c(s1)CN(S(C)(=O)=O)c1c(C)c([C@H](OC(C)(C)C)C(=O)O)c(-c3ccc(C)cc3)c(C)c1-2 [Compound 307]
EC50 [5]: 51 nM

SMILES: Cc1ccc(-c2c(C)c3c(c(C)c2[C@H](OC(C)(C)C)C(=O)O)N(S(C)(=O)=O)CC2CCCCN32)cc1 (stereo partly drawn) [Compound 285]
EC50 [1]: 55 nM

SMILES: Cc1c(-c2c(C)c3c(c(C)c2[C@H](OC(C)(C)C)C(=O)O)N(S(C)(=O)=O)[C@@H](C)c2cccnc2-3)ccc2c1NCCO2 [Compound 337]
EC50 [6]: 26 nM

SMILES: Cc1ccc2c(c1F)CN(S(C)(=O)=O)c1c(C)c([C@H](OC(C)(C)C)C(=O)O)c(-c3ccc4c(c3C)NCCO4)c(C)c1-2 [Compound 254]
EC50 [1]: 3.1 nM

SMILES: Cc1c(-c2ccc3cccnc3c2C)c([C@H](OC(C)(C)C)C(=O)O)c(C)c2c1-c1c(F)ccc(F)c1CN2S(C)(=O)=O [Compound 311]
EC50 [5]: 28 nM

SMILES: Cc1c(-c2c(C)c3c(c(C)c2[C@H](OC(C)(C)C)C(=O)O)N(S(C)(=O)=O)Cc2ccccc2-3)ccc2c1NCCO2 [Compound 300]
EC50 [5]: < 7.8 nM

SMILES: COc1ccc(-c2c(C)c3c(c(C)c2[C@H](OC(C)(C)C)C(=O)O)N(S(C)(=O)=O)Cc2cccc(F)c2-3)cc1 [Compound 263]
EC50 [1]: 12 nM

Other lines, results leading:

EC50 [2]: 17 nM
SMILES: Cc1ccc(-c2c(C)c3c(c(C)c2[C@H](OC(C)(C)C)C(=O)O)N(S(C)(=O)=O)Cc2ccc(C)cc2-3)cc1 [Compound 110]

EC50 [2]: 97 nM
SMILES: Cc1ccc(-c2c([C@H](OC(C)(C)C)C(=O)O)c(C)c3ncc4cc5ccccc5nc4c3c2C)cc1 [Compound 99]

EC50 [3]: 39 nM
SMILES: Cc1ccc(-c2c(C)c3c(c(C)c2[C@H](OC(C)(C)C)C(=O)O)N(S(C)(=O)=O)Cc2cccnc2-3)cc1 [Compound 145]

EC50 [4]: 46 nM
SMILES: Cc1ccc(-c2c([C@H](OC(C)(C)C)C(=O)O)c(C)c3nc(O)c4ccc(C(F)(F)F)nc4c3c2C)cc1 [Compound 216]

EC50 [3]: 1.5 nM
SMILES: COc1ccc2c(c1F)CN(S(C)(=O)=O)c1c(C)c([C@H](OC(C)(C)C)C(=O)O)c(-c3ccc(C)cc3)c(C)c1-2 [Compound 174]

EC50 [2]: 4.2 nM
SMILES: Cc1ccc(-c2c(C)c3c(c(C)c2[C@H](OC(C)(C)C)C(=O)O)NS(=O)(=O)Cc2cc(F)ccc2-3)cc1 [Compound 91]

EC50 (Human immunodeficiency virus 1, MT4, 96 h, Table A-9, four days): < 7.8 nM
SMILES: Cc1ccc(-c2c(C)c3c(c(C)c2[C@H](OC(C)(C)C)C(=O)O)N(S(C)(=O)=O)Cc2cc(Cl)cnc2-3)cc1 [Compound 407]

EC50 [4]: 94 nM
SMILES: Cc1ccc(-c2c([C@H](OC(C)(C)C)C(=O)O)c(C)c3nc(O)c4ccc(F)cc4c3c2C)cc1 [Compound 230]

EC50 (Table A-2, four days): 38 nM
SMILES: Cc1ccc(-c2c(C)c3c(c(C)c2[C@H](OC(C)(C)C)C(=O)O)N(S(C)(=O)=O)Cc2cc4c(cc2-3)OCCO4)cc1 [Compound 105]

EC50 [3]: 9.4 nM
SMILES: Cc1ccc(-c2c(C)c3c(c(C)c2[C@H](OC(C)(C)C)C(=O)O)N(S(C)(=O)=O)Cc2c-3cccc2C(F)(F)F)cc1 [Compound 173]

EC50 [3]: 4.1 nM
SMILES: Cc1ccc(-c2c(C)c3c(c(C)c2[C@H](OC(C)(C)C)C(=O)O)N(S(C)(=O)=O)Cc2cc(OC(F)(F)F)ccc2-3)cc1 [Compound 164]

EC50 [2]: 6 nM
SMILES: Cc1ccc(-c2c(C)c3c(c(C)c2[C@H](OC(C)(C)C)C(=O)O)N(S(C)(=O)=O)Cc2cc(C)ccc2-3)cc1 [Compound 115]

EC50 [4]: 31 nM
SMILES: Cc1c([C@H](OC(C)(C)C)C(=O)O)c(-c2ccc(Cl)cc2)c(C)c2c1nc(O)c1cc(F)cnc12 [Compound 238]

EC50 [3]: 3.5 nM
SMILES: Cc1ccc(-c2c(C)c3c(c(C)c2[C@H](OC(C)(C)C)C(=O)O)N(S(C)(=O)=O)Cc2c-3ccc(C)c2F)cc1 [Compound 141]

EC50 [4]: 4.9 nM
SMILES: COc1cc2c(cn1)-c1c(C)c(-c3ccc(C)cc3)c([C@H](OC(C)(C)C)C(=O)O)c(C)c1N(S(C)(=O)=O)C2 [Compound 214]

EC50 [3]: 21 nM
SMILES: Cc1ccc(-c2c(C)c3c(c(C)c2[C@H](OC(C)(C)C)C(=O)O)N(S(C)(=O)=O)Cc2cscc2-3)cc1 [Compound 183]

EC50 (Table A-2, four days): 4.4 nM
SMILES: Cc1ccc(-c2c(C)c3c(c(C)c2[C@H](OC(C)(C)C)C(=O)O)NS(=O)(=O)Cc2cc(C)ccc2-3)cc1 [Compound 118]

EC50 (Table A-2, four days): 2.1 nM
SMILES: Cc1ccc(-c2c(C)c3c(c(C)c2[C@H](OC(C)(C)C)C(=O)O)N(S(C)(=O)=O)Cc2cc4c(cc2-3)OCCO4)cc1 [Compound 104]

EC50 [3]: 8.5 nM
SMILES: Cc1ccc(-c2c(C)c3c(c(C)c2[C@H](OC(C)(C)C)C(=O)O)N(S(C)(=O)=O)Cc2cc(F)ccc2-3)cc1 [Compound 167]

EC50 (Table A-2, four days): 89 nM
SMILES: Cc1ccc(-c2c(C)c3c(c(C)c2[C@H](OC(C)(C)C)C(=O)O)NS(=O)(=O)Cc2c(F)cccc2-3)cc1 [Compound 123]

EC50 [3]: 21 nM
SMILES: Cc1ccc(-c2c(C)c3c(c(C)c2[C@H](OC(C)(C)C)C(=O)O)NS(=O)(=O)N(c2ccc(F)cc2)CC3)cc1 [Compound 171]

EC50 (Table A-2, four days): 19 nM
SMILES: Cc1ccc(-c2c(C)c3c(c(C)c2[C@H](OC(C)(C)C)C(=O)O)NS(=O)(=O)Cc2cc(C)ccc2-3)cc1 [Compound 117]

EC50 [4]: 12 nM
SMILES: Cc1ccc(-c2c([C@H](OC(C)(C)C)C(=O)O)c(C)c3nc(O)c4cc5c(cc4c3c2C)OCCO5)cc1 [Compound 232]

EC50 [6]: 19 nM
SMILES: Cc1ccc(-c2c(C)c3c(c(C)c2[C@H](OC(C)(C)C)C(=O)O)N(S(N)(=O)=O)Cc2c(F)ccc(F)c2-3)cc1 [Compound 333]

EC50 [4]: 41 nM
SMILES: Cc1ccc(-c2c([C@H](OC(C)(C)C)C(=O)O)c(C)c3nc(O)c4ccc(C)nc4c3c2C)cc1 [Compound 217]

EC50 [2]: 10 nM
SMILES: Cc1ccc(-c2c([C@H](OC(C)(C)C)C(=O)O)c(C)c3nc(O)c4cc(F)cnc4c3c2C)cc1 [Compound 100]

EC50 [4]: 78 nM
SMILES: Cc1ccc(-c2c([C@H](OC(C)(C)C)C(=O)O)c(C)c3nc(O)c4cc(F)c(F)cc4c3c2C)cc1 [Compound 231]

EC50 [3]: 34 nM
SMILES: Cc1ccc(-c2c(C)c3c(c(C)c2[C@H](OC(C)(C)C)C(=O)O)NC(=O)N(Cc2ccc(F)cc2)CC3)cc1 [Compound 177]
